Test results taken from US7547513B2, “Mutants of deoxycytidine kinase having extended enzymatic activity” (priority 2001, dated 2009).
≈ marks a conversion by molar mass, not a printed value. Where “and” joins values, the source holds several entries; their conditions need not be identical. Equal entries are not always repeated.

What was measured:
[1] = tested on: Escherichia coli β7334 Δdeo tdk cdd::Tn10 pSUTrc (dck allele: none); assay type: cell-based; details: strain β7334, dck allele none; 18 h 37° C., MS medium + IPTG
Experimental: (§1) The culture was then diluted 100 times in the same medium supplemented with IPTG and distributed on 96-well microplates in a final volume of 100 μl in a series of dilutions from to 2 to 2 nucleotide analogues. Each analogue was tested twice. After incubation for 18 hours at 37° C. with stirring, the MIC was determined as corresponding to the lowest analogue concentration for which no turbidity was detectable.
(§2) The toxicity of nucleoside analogues, deviating either by the sugar or by the base, was evaluated in strains of genotype Δdeo tdk cdd expressing on a plasmid the different dckH alleles, wild-type allele, D133E, R104Q and double mutant.
(§3) The minimum inhibitory concentrations, expressed in microM, were determined as indicated in the section Materials and Methods.

[2] = tested on: Escherichia coli β7338 Δdeo tdk cdd::Tn10 pSUDCK4 (dck:D133E-R104Q); assay type: cell-based; details: strain β7338, dck allele D133E R104Q; 18 h 37° C., MS medium + IPTG
Experimental: as §1, §2, §3

[3] = tested on: Escherichia coli β7339 Δdeo tdk cdd::Tn10 (dckH none, amkG wt); assay: microbe, parasite or virus in culture; assay type: cell-based; details: strain β7339, dckH none, amkG wt
Experimental: as §1
(§4) We jointly expressed, within the genetic context Δdeo tdk cdd each of the four alleles of dckH with each of the two wt and T39A alleles of amkG, and tested the toxicity of the different nucleoside analogues already tested previously (Table 4 below).
as §3

[4] = tested on: Escherichia coli β7340 Δdeo tdk cdd::Tn10 (dckH wt, amkG wt); assay: microbe, parasite or virus in culture; assay type: cell-based; details: strain β7340, dckH wt, amkG wt
Experimental: as §1, §4, §3

[5] = tested on: Escherichia coli β7341 Δdeo tdk cdd::Tn10 (dckH D133E, amkG wt); assay: microbe, parasite or virus in culture; assay type: cell-based; details: strain β7341, dckH D133E, amkG wt
Experimental: as §1, §4, §3

[6] = tested on: Escherichia coli β7342 Δdeo tdk cdd::Tn10 (dckH R104Q, amkG wt); assay: microbe, parasite or virus in culture; assay type: cell-based; details: strain β7342, dckH R104Q, amkG wt
Experimental: as §1, §4, §3

[7] = tested on: Escherichia coli β7343 Δdeo tdk cdd::Tn10 (dckH D133E R104Q, amkG wt); assay: microbe, parasite or virus in culture; assay type: cell-based; details: strain β7343, dckH D133E R104Q, amkG wt
Experimental: as §1, §4, §3

[8] = tested on: Escherichia coli β7344 Δdeo tdk cdd::Tn10 (dckH none, amkG T39A); assay: microbe, parasite or virus in culture; assay type: cell-based; details: strain β7344, dckH none, amkG T39A
Experimental: as §1, §4, §3

[9] = tested on: Escherichia coli β7345 Δdeo tdk cdd::Tn10 (dckH wt, amkG T39A); assay: microbe, parasite or virus in culture; assay type: cell-based; details: strain β7345, dckH wt, amkG T39A
Experimental: as §1, §4, §3

[10] = tested on: Escherichia coli β7346 Δdeo tdk cdd::Tn10 (dckH D133E, amkG T39A); assay: microbe, parasite or virus in culture; assay type: cell-based; details: strain β7346, dckH D133E, amkG T39A
Experimental: as §1, §4, §3

[11] = tested on: Escherichia coli β7347 Δdeo tdk cdd::Tn10 (dckH R104Q, amkG T39A); assay: microbe, parasite or virus in culture; assay type: cell-based; details: strain β7347, dckH R104Q, amkG T39A
Experimental: as §1, §4, §3

[12] = tested on: Escherichia coli β7348 Δdeo tdk cdd::Tn10 (dckH D133E R104Q, amkG T39A); assay: microbe, parasite or virus in culture; assay type: cell-based; details: strain β7348, dckH D133E R104Q, amkG T39A
Experimental: as §1, §4, §3

[13] = tested on: bacteria of genotype Δdeo tdk p::dckH+ (β7134 cells); assay: Selection of the DCK mutants in vivo (mutagenesis of dck gene by promutagenic nucleosides); assay type: cell-based, Escherichia coli; details: for frequency of colonies on solid rich medium with trimethoprim and thymidine after exposure: no colony in the absence of promutagenic nucleoside
Experimental: Selection of the DCK mutants in vivo: a 12-hour culture of the β7134 cells in MS medium supplemented with 50 mg/l of carbenicillin was diluted 100 times in the same medium and cultured with aeration until turbidity of 0.100 (600 nm) was reached. The culture was then diluted 25 times in the same medium with or without IPTG and supplemented with variable concentrations (5 to 30 μM) of the promutagenic nucleoside analogues disoG and disoA then cultured with aeration for 18 hours. The cells were rinsed then plated on MH dishes supplemented with trimethoprim, thymidine and IPTG. Colonies appeared after incubation for 36 hours at 37° C. No colony was obtained in the absence of nucleoside analogue.
We took advantage of the conditional mutating property of DCK in the presence of promutagenic nucleoside analogues in order to subject its own dck gene to an episode of mutagenesis in vivo. Thus, bacteria of genotype Δdeo tdk p::dckH+ were exposed either to 2′-deoxy-iso-adenosine (disoA) or to 2′ deoxy-iso-guanosine (disoG), then incubated on solid rich medium in the presence of trimethoprim and thymidine. Colonies appeared following the administration of the two compounds at a frequency of the order of 10^−8. No colony survived in the absence of promutagenic nucleoside.
These alleles are designated dckH*. A plasmid combining the two mutations in the same allele, dckH**, was constructed and introduced into the strain β7117 of genotype Δdeo tdk. This allowed the complementation of the tdk mutation, thus also expressing a thymidine kinase activity. The different alleles selected are itemized in Table 2 below.

[14] = tested on: Escherichia coli β7336 Δdeo tdk cdd::Tn10 pSUDCK2 (dck:D133E); assay type: cell-based; details: strain β7336, dck allele D133E; 18 h 37° C., MS medium + IPTG
Experimental: (§5) The culture was then diluted 100 times in the same medium supplemented with IPTG and distributed on 96-well microplates in a final volume of 100 μl in a series of dilutions from to 2 to 2 nucleotide analogues. Each analogue was tested twice.
as §2, §3

[15] = tested on: Escherichia coli β7337 Δdeo tdk cdd::Tn10 pSUDCK3 (dck:R104Q); assay type: cell-based
Experimental: as §5, §2, §3

[16] = sequenced mutant plasmids obtained independently

Structure (SMILES)	minimum inhibitory concentration (MIC) [1]	minimum inhibitory concentration (MIC) [2]	minimum inhibitory concentration (MIC) [3]	minimum inhibitory concentration (MIC) [4]	minimum inhibitory concentration (MIC) [5]	minimum inhibitory concentration (MIC) [6]	minimum inhibitory concentration (MIC) [7]	minimum inhibitory concentration (MIC) [8]	minimum inhibitory concentration (MIC) [9]	minimum inhibitory concentration (MIC) [10]	minimum inhibitory concentration (MIC) [11]	minimum inhibitory concentration (MIC) [12]	frequency of colonies on solid rich medium with trimethoprim and thymidine after exposure [13]	Frequency of mutation detected C → A, codon 133 GAC, Asp → Glu [13, 16]	minimum inhibitory concentration (MIC) [14]	minimum inhibitory concentration (MIC) ([15]; strain β7337, dck allele R104Q, 18 h 37° C., MS medium + IPTG)	effect of the mutation on toxicity ([15]; mutation R104Q)	Frequency of mutation detected C → G, codon 133 GAC, Asp → Glu [13, 16]	Frequency of mutation detected G → A, codon 133 CGA, Arg → Glu [13, 16]
Nc1nc(O)nc2c1ncn2[C@H]1C[C@H](O)[C@@H](CO)O1 [disoG, 2-hydroxy-6-amino-9-(2′-deoxy-β-D-ribofuranosyl)purine]	> (no toxicity could be detected at the highest analogue concentration, 1.28 mM)	> (no toxicity could be detected at the highest analogue concentration, 1.28 mM)	> (no toxicity could be detected at the highest analogue concentration, 1280 microM)	> (no toxicity could be detected at the highest analogue concentration, 1280 microM)	> (no toxicity could be detected at the highest analogue concentration, 1280 microM)	> (no toxicity could be detected at the highest analogue concentration, 1280 microM)	> (no toxicity could be detected at the highest analogue concentration, 1280 microM)	> (no toxicity could be detected at the highest analogue concentration, 1280 microM)	> (no toxicity could be detected at the highest analogue concentration, 1280 microM)	> (no toxicity could be detected at the highest analogue concentration, 1280 microM)	> (no toxicity could be detected at the highest analogue concentration, 1280 microM)	> (no toxicity could be detected at the highest analogue concentration, 1280 microM)	~10^−8	4/4	–	–	–	–	–
NNc1ccn([C@H]2C[C@H](O)[C@@H](CO)O2)c(=O)n1 [amino-dC, N4-amino-2′-deoxycitidine]	> (no toxicity could be detected at the highest analogue concentration, 1.28 mM)	20 µM	> (no toxicity could be detected at the highest analogue concentration, 1280 microM)	80 µM (≈ 19.4 µg/mL)	> (no toxicity could be detected at the highest analogue concentration, 1280 microM)	≦1.25 microM	80 µM (≈ 19.4 µg/mL)	> (no toxicity could be detected at the highest analogue concentration, 1280 microM)	> (no toxicity could be detected at the highest analogue concentration, 1280 microM)	640 µM (≈ 155 µg/mL)	5 µM (≈ 1.21 µg/mL)	320 µM (≈ 77.5 µg/mL)	–	–	20 µM	2.5 µM	–	–	–
O=c1[nH]cnc2c1ncn2[C@H]1C[C@H](O)[C@@H](CO)O1 [dI, 2′-deoxyinoside]	> (no toxicity could be detected at the highest analogue concentration, 1.28 mM)	320 µM	> (no toxicity could be detected at the highest analogue concentration, 1280 microM)	> (no toxicity could be detected at the highest analogue concentration, 1280 microM)	≦1.25 microM	> (no toxicity could be detected at the highest analogue concentration, 1280 microM)	1280 µM (≈ 323 µg/mL)	> (no toxicity could be detected at the highest analogue concentration, 1280 microM)	> (no toxicity could be detected at the highest analogue concentration, 1280 microM)	≦1.25 microM	> (no toxicity could be detected at the highest analogue concentration, 1280 microM)	1280 µM (≈ 323 µg/mL)	–	–	1 µM and 1.25 µM	–	–	–	–
Nc1ncc2ncn([C@H]3C[C@H](O)[C@@H](CO)O3)c2n1 [disoA, 2-amino-9-(2′-deoxy-β-D-ribofuranosyl)purine]	> (no toxicity could be detected at the highest analogue concentration, 1.28 mM)	> (no toxicity could be detected at the highest analogue concentration, 1.28 mM)	> (no toxicity could be detected at the highest analogue concentration, 1280 microM)	> (no toxicity could be detected at the highest analogue concentration, 1280 microM)	> (no toxicity could be detected at the highest analogue concentration, 1280 microM)	> (no toxicity could be detected at the highest analogue concentration, 1280 microM)	1280 µM (≈ 322 µg/mL)	> (no toxicity could be detected at the highest analogue concentration, 1280 microM)	> (no toxicity could be detected at the highest analogue concentration, 1280 microM)	10 µM (≈ 2.51 µg/mL)	> (no toxicity could be detected at the highest analogue concentration, 1280 microM)	> (no toxicity could be detected at the highest analogue concentration, 1280 microM)	~10^−8	1/3	10 µM	–	no effect	1/3	1/3
